From patent US20210024499A1, “OXIDIZED BIS(3-INDOLYL)METHANES AND USES THEREOF” (Sanford Burnam Prebys Medical Discovery Institute, priority 2018, published 2021)

Tests used:
[1] = system: Nur77−/−HeLa cells; assay: PARP cleavage and caspase 3 activation, Nur77 knockout HeLa; format: cell-based
Description: Knocking out Nur77 and Bcl-2 from HeLa cells employed the CRISPR/Cas9 system. gRNA targeting sequence of Nur77 (5′-[…]-3′) and Bcl-2 (5′-[…]-3′) was cloned into gRNA cloning vector Px330 (Addgene, 71707) and confirmed by sequencing. To screen for cells lacking Nur77 or Bcl-2, HeLa cells were transfected with control vector and gRNA expression vectors, followed by G418 selection (0.5mg/m1). Single colonies were subjected to Western blotting using anti-Nur77 and anti-Bcl-2 antibody to select knockout cells.
The apoptotic effect of Compound lwas also evaluated in Nur77 genome knockout HeLa cells generated by CRISPR/Cas9 technology (Example A-5).

[2] = system: Nur77−/−MEFs; assay: Cell viability (MTT), Nur77-/- MEFs; format: cell-based, mouse; conditions: 6 hours, MTT (FIG. 8)
Description: (§1) Cell viability was analyzed by using a colorimetric 3-(4,5-dimethylthiazol-[…]2-yl)-2,5-diphenyletetrazolium Bromide (MTT) assay that determines mitochondrial dehydrogenase activities in the living cells with a colorimetric method. Cells treated with test compounds were incubated with MTT and their effect on the viability of the cells was assayed by the ability of treated cells to reduce the yellow tetrazolium dye MTT to its insoluble formazan, which has a purple color.
(§2) The apoptotic effect of Compound 1 was examined in mouse embryonic fibroblast (MEF) and MEF lacking Nur77 (Nur77^−/−MEF). […] Induction of PARP cleavage (as performed in Example A-7) in MEFs by Compound 1 at 0.5 μM was also attenuated in Nur77^−/−MEFs.

[3] = system: MEFs; assay: Cell viability (MTT), MEFs; format: cell-based, mouse; conditions: 6 hours, MTT (FIG. 8)
Description: as §1, §2

[4] = system: Nur77 and pBind-RXRa-LBD-E453,6A; assay: Mammalian one hybrid assay, RXRa-LBD/E453,6A mutant with Nur77; format: cell-based; conditions: cells transfected with Nur77 and pBind-RXRa-LBD-E453,6A
Description: (§3) HEK293T cells were co-transfected with pG5 Luciferase reporter together with the plasmid encoding RXRa-LBD fused with the Gal4 DNA-binding domain and other expression plasmids. After transfection, cells were treated with DMSO or a test compound, and assayed by using the Dual-Luciferase Reporter Assay System (Promega). Transfection efficiency was normalized to Renilla luciferase activity.
(§4) To exclude the possibility that Compound 1 acted on RXRa, Glu453 and Glu456 in the RXRa activation function 2 (AF2) region were substituted with Ala and the resulting mutant, RXRa-LBD/E453,6A, was used.

[5] = system: MEF cells; assay: Mitochondrial membrane potential (JC1), MEF; format: cell-based, mouse; conditions: 0.5 μM, 6 h
Description: (§5) Loss of mitochondrial membrane potential (Avm) represents one of the hallmarks of apoptosis. A JC-1 probe was employed to measure mitochondrial depolarization in cancer cells. MDA-MB-231 breast cancer cells were treated with different concentration of test compounds for 6 hours. JC-1 staining solution (5 μg/ml) was added at 37° C. for 20 min. After washing with PBS twice, mitochondrial membrane potentials were monitored by determining the relative amounts of dual emission from a multiple fluorescence reader. The fluorescence in cells was quantitatively analyzed by flow cytometry. Mitochondrial depolarization is depicted by an increase in the green/red fluorescence intensity ratio. ROS were monitored with the oxiadtion-senstive fluorescent probe 2′7′-dichlorodihydroflurescenin diacetate (DCF-DA).
In addition, Bcl-2^−/−MEF cells were more resistant than the parental MEF cells to Compound 1 in its induction of the mitochondrial membrane potential loss measured by JC1 staining and in the release of mitochondrial ROS (as performed in Example A-12).

[6] = system: SW480 cells; assay: DAPI staining for apoptosis, SW480; format: cell-based; conditions: 0.5 μM, 6 hours, counted in 200 cells
Description: In SW480 cells, about 60% apoptotic cells were detected when cells were treated with Compound 1 compared to less than 5% when cells were not treated with Compound 1. Apoptotic cells were counted in 200 cells.

[7] = system: SW620 xenograft tumor; assay: SW620 xenograft nude mouse study; format: in vivo, BALB/c nude mice
Description: Male BALB/c nude mice (6 weeks old) were subcutaneously injected with log growth-phase of SW620 cells (1×10^6 cells in 0.1 ml PBS). Mice were treated orally after 7 days of transplantation with Compound 1 once a day. Body weight and tumor size were measured every 3 days. Tumors were measured and weighted. Tissues isolated from the nude mice were fixed with 4% paraformaldehyde. TdT-mediated dUTP nick end labeling assay was performed according to the manufacturer's instructions (In situ Cell Death Detection Kit; Roche).

[8] = system: Bcl-2−/− HeLa cells; assay: Mitochondrial ROS, Bcl-2 knockout HeLa; format: cell-based
Description: as §5
In addition, Bcl-2^−/−HeLa cells were more resistant than the parental HeLa cells to Compound 1 in its induction of the mitochondrial membrane potential loss measured by JC1 staining and in the release of mitochondrial ROS (as performed in Example A-12).

[9] = system: Nur77−/−MEFs; assay: PARP cleavage, Nur77-/- MEFs; format: cell-based, mouse; conditions: 0.5 μM
Description: as §2

[10] = biological target: T1, Nur77 (Homo sapiens, UniProt P22736); assay: Immunostaining of Nur77 localization, HCT116; format: cell-based; conditions: HCT116 cells, 0.5 μM, 2 hours
T1 construct: expressed in transfected cells
T1 sequence (P22736 whole entry): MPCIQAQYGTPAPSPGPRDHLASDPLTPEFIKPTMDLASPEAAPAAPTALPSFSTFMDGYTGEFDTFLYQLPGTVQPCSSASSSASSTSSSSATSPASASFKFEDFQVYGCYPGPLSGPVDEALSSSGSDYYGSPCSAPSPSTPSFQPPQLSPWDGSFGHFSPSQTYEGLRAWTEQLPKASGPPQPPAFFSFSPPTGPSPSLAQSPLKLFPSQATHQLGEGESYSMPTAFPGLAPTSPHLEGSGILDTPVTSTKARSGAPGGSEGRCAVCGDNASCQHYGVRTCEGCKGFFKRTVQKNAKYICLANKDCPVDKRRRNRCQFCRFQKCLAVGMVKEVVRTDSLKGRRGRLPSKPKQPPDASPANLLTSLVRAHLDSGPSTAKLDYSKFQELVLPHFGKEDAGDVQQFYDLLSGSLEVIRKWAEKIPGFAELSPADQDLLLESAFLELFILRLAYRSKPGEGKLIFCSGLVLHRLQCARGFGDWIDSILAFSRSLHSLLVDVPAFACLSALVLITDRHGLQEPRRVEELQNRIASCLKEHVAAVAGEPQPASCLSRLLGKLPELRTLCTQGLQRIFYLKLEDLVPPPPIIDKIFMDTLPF
Description: Cells were fixed in 3.7% paraformaldehyde. For mitochondrial staining, cells were incubated with anti-Hsp60 goat immunoglobulin G (IgG) (Santa Cruz Biotechnology, Santa Cruz, Calif.), followed by anti-goat IgG conjugated with Cy3. The nuclei were visualized by DAPI staining. Fluorescent images were collected and analyzed by using a fluorescence microscopy or MRC-1024 MP laser-scanning confocal microscope (Bio-Rad, Hercules, Calif.).
To confirm the effect of Compound 1 on Nur77 cytoplasmic localization, HEK293T cells were transfected with GFP-Nur77 and subsequently treated with 0.5 μM Compound 1.

[11] = system: pBind-RXRa-LBD and Nur77; assay: Mammalian one hybrid assay, Gal4-RXRa-LBD with Nur77; format: cell-based; conditions: cotransfection of pBind-RXRa-LBD and Nur77, Dual-Luciferase (FIG. 10)
Description: as §3, §4

[12] = system: HEK293T cells transfected with Nur77-LBD; assay: Apoptosis in HEK293T cells transfected with Nur77-LBD (confocal microscopy); format: cell-based
Description: The ligand-binding domain (LBD) of Nur77, Nur77-LBD, was transfected into HEK293T cells. Transfection of Nur77-LBD enhanced the apoptotic effect of Compound 1, with 36% of the transfected HEK293T cells undergoing apoptosis, while 4.5% of the non-transfected cells were apoptotic, as measured by confocal microscopy.

[13] = system: MDA-MB-231 breast cancer cells; assay: Mitochondrial membrane potential (JC-1), MDA-MB-231; format: cell-based; conditions: MDA-MB-231 cells, 1 μM, 6 h
Description: as §5
In healthy cells with high Δψwm, JC-1 forms complexes with intense red fluorescence. However, in cells with low Δψm, JC-1 remains in the monomeric form with green fluorescence. Mitochondrial depolarization is depicted by an increase in the green/red fluorescence intensity ratio.

SMILES: FC(F)(F)c1ccc([C+](c2c[nH]c3ccccc23)c2c[nH]c3ccccc23)cc1 [Compound 1, Bis(1H-indol-3-yl)(4-(trifluoromethyl)phenyl)methylium methanesulfonate]
- induction of PARP cleavage and caspase 3 activation [1]: strongly suppressed
- growth inhibitory effect relative to MEFs [2]: significantly diminished
- growth of MEFs [3]: dose-dependently inhibited the growth of MEFs
- reporter transcriptional activity [4]: could still activate the reporter gene transcription
- JC1 green to red ratio (control 100%) [5]: 400%
- apoptotic cells (DAPI staining) [6]: about 60%
- apoptosis in tumor specimens (TUNEL assay) ([7]; SW620 xenograft, compared to control tumor): extensive apoptosis
- growth of SW620 xenograft tumor ([7]; nude mice, oral, once a day (FIGS. 6A-6B)): inhibited the growth of SW620 xenograft tumor in a dose and time-dependent manner
- increase in mito-ROS relative to regular HeLa cells [8]: smaller increase
- induction of PARP cleavage relative to MEFs [9]: attenuated
- Nur77 subcellular localization (immunostaining) [10]: predominantly cytoplasmic
- reporter transcriptional activity [11]: dose dependently induced the reporter activity
- cells undergoing apoptosis [12]: 36%
- JC-1 green to red ratio (control 100%) [13]: 345%
